Experimental data reported in patent US20110020434A1, “NANOPARTICLE ARSENIC-PLATINUM COMPOSITIONS” (priority 2005, published 2011).
Read-outs that look alike come from different tables or passages of the source.

Assays:
[1] = system: KB (FR+) human nasopharyngeal epidermal carcinoma cells; assay: Guava ViaCount cytotoxicity assay, folate-targeted liposomes; assay type: cell-based
Description: (§1) Cell culture. SU-DHL-4 (human lymphoma B cells) was from the Deutsche Sammlung von Mikroorganismen and Zellkulturen GmbH (DSMZ, Braunschweig, Germany). MM.1S (human multiple myeloma B cells) was previously established in the laboratory of Prof. Steven. T. Rosen (Robert H. Lurie Comprehensive Cancer Center, Northwestern University). IM-9 (human lymphoblast B cells), MDA-MB-231 (human breast adenocarcinoma cells), OVCAR-3 (human ovary adenocarcinoma cells), KB (human nasopharyngeal epidermal carcinoma cells, FR), and MCF-7 (human breast carcinoma cells, FR^-) (Sonvico et al. J. Drug Del. Sci. Tech. 2005, 15, 407-410, Chen et al. Mol. Cancer Ther. 2009, in press., herein incorporated by reference in their entireties) were purchased from ATCC (Manassas, Va., USA). All Cells were maintained at 37° C. in an incubator with 5% CO2 and harvested in the exponential phase of growth. SU-DHL-4, IM-9, and MM.1S cells were cultured in RPMI-1640 supplemented with 10% FBS, 2 mM glutamine, 100 units/mL penicillin-streptomycin, and 2.5 μg/mL Amphotericin B. MDA-MB-231 cells were cultured in DMEM/F12 supplemented with 5% cds-FBS, 2 mM glutamine, 100 units/mL penicillin-streptomycin, and 0.1% human insulin solution. OVCAR-3 cells were cultured in RPMI-1640 supplemented with 20% FBS, 100 units/mL penicillin-streptomycin, and 0.1% human insulin solution. MCF-7 cells was cultured in EMEM supplemented with 10% FBS, 2 mM glutamine, 100 units/mL penicillin-streptomycin and 2.5 μg/mL Amphotericin B. KB cells were cultured in EMEM supplemented with 10% FBS and 50 units/mL penicillin-streptomycin. For folate-targeting experiments, KB cells were transferred into folate-deficient RPMI-1640 medium for more than one week before each experiment (Lee et al. J. Biol. Chem. 1994, 269, 3198-3204, herein incorporated by reference in its entirety).
(§2) The in vitro cytotoxicities of folate-targeted liposomes against KB and MCF-7 cells were determined by Guave ViaCount assay (Stearns et al. Cancer Res. 2006, 66, 673-681, Donaldson et al. Cell Death Differ 2009, 16, 125-138, herein incorporated by reference in their entireties) (The MTS assay is not applicable in this case because the folate moiety interferes with the reactions of MTS/PMS agents and seriously impairs accuracy of cell viability (Chen et al. Mol. Cancer Ther. 2009, in press.)). Cells were first plated in 48-well plates at a density of 30,000-60,000 cells/mL, 0.2 mL per well. After 24 h at 37° C., the media were replaced with drug solutions. Cells were thus incubated with drugs continuously for 72 h, or exposed to drugs for 3 h at 37° C., then washed with PBS ×2 and further incubated up to 72 h in drug-free medium. The same Pt concentrations of aqua-cisPt were used as in f-NB(As, Pt). Cell viability was determined by Guave ViaCount (Stearns et al. Cancer Res. 2006, 66, 673-681, Donaldson et al. Cell Death Differ 2009, 16, 125-138, herein incorporated by reference in their entireties), using a Guava EasyCyte Mini flow cytometer (Guava Technologies, Hayward, Calif.). Cells, after released from plates by trypsinization (using 0.05% trypsin/0.02% EDTA), were stained with the Guava Viacount agent, which contains two fluorescent dyes, one cell permeable and one impermeable. This allows viable and dead cell numbers to be accurately determined by Guava Viacount software. Cell growth rates were expressed as a function of drug concentration on a logarithmic scale. The IC50 values (the drug concentration required for 50% inhibition of cell growth) were determined by fitting to a sigmoidal dose-response curve using Origin 6.0 (Microcal Software, Inc., Northampton, USA) (SEE FIGS. 12F-G and Table 3).

[2] = system: MCF-7 (FR−) human breast carcinoma cells; assay: as above; assay type: cell-based
Description: as §1, §2

[3] = system: IM-9 (human lymphoblast B cells); assay type: cell-based; details: 48 h drug treatment
Description: as §1
(§3) The MTS assay is one of most high throughput and economical assays for detecting viability of cancer cells. Briefly, SU-DHL-4 and IM-9 (40,000 cells/mL), and MM.1S (250,000 cells/mL) were treated with drugs and plated in quadruplicate (100 uL/well) onto 96-well plates. For MDA-MB-231 and OVCAR-3, 20,000 cells/mL were plated in quadruplicate (100 uL/well) onto 96-well plates, incubated overnight and then treated with drugs. After incubation for the indicated period at 37° C., the MTS/PMS solution (20 μL/well) was added to each well and the plates were further incubated for 4 h at 37° C. before reading the absorbance at 490 nm. Cell growth rates were expressed as a function of drug concentration on a logarithmic scale. The IC50 values (the drug concentration required for 50% inhibition of cell growth) were determined by fitting to a sigmoidal dose-response curve using Origin 6.0 software (Microcal Software, Inc., Northampton, USA). In the case of the 1.5 h (SEE FIG. 8B) or 2 h (SEE FIG. 9B) time periods, the cells treated with drugs were first incubated for 1.5 h or 2 h at 37° C., then washed twice with PBS to remove un-associated drugs or liposomes, and further incubated up to 48 h (FIG. 8b) or 72 h (FIG. 9b) in drug-free medium, followed by the MTS assay.

[4] = system: MDA-MB-231 (human breast adenocarcinoma cells); assay type: cell-based; details: 72 h drug treatment
Description: as §1, §3

[5] = system: SU-DHL-4 (human lymphoma B cells); assay type: cell-based; details: 48 h drug treatment
Description: as §1, §3

[6] = system: OVCAR-3 (human ovary adenocarcinoma cells); assay: MTS cell proliferation cytotoxicity assay; assay type: cell-based; details: 72 h drug treatment
Description: as §1, §3

MCF-7 (FR−) cells = assay: Quantitative cellular drug uptake by ICP-MS; assay type: cell-based, human; details: 3 h at 37° C.
Description: as §1, with “OVCAR-3 cells were cultured in RPMI-1640 supplemented with 20% FBS, 100 units/mL penicillin-streptomycin, and 0.1% human insulin solution. MCF-7 cells was cultured in EMEM supplemented with 10% FBS, 2 mM glutamine, 100 units/mL penicillin-streptomycin and 2.5 μg/mL Amphotericin B. KB cells were cultured in EMEM supplemented with 10% FBS and 50 units/mL penicillin-streptomycin. For folate-targeting experiments, KB cells were transferred into folate-deficient RPMI-1640 medium for more than one week before each experiment (Lee et al. J. Biol. Chem. 1994, 269, 3198-3204, herein incorporated by reference in its entirety).” left out
Cells were plated, 24 h before each experiment, in 6-well plates with 500,000 cells per well. […] Cell-associated drug was expressed as As and Pt atoms per cell (SEE FIG. 12E and Table 4.

[7] = system: human lymphoma cell line SU-DHL-4 (CD20-positive); assay: MTS cytotoxicity assay of liposomal Ni-arsenic and Rituxan conjugate; assay type: cell-based; details: 72 h (three days) at 37° C.; read-out: IC50 (arsenic level), SU-DHL-4
Description: The human lymphoma B cell line of SU-DHL-4 (CD20-positive) was obtained from the American Type Culture Collection (Rockville, MD, USA). Cells were cultured in RPMI 1640 (Invitrogen Corporation) supplemented with 10% fetal bovine serum, 2 mM glutamine, 100 units/mL penicillim, 100 ug/mL streptomycin, and 2.5 ug/mL fungizone. Cells were maintained at 37° C. in an incubator with 5% CO2 and harvested in the exponential phase of growth.
Cells (25,000 cells/mL) were treated with various drugs and plated in 96-well plates. After incubation for 72 h at 37° C., the MTS solution (20 uL/well) was added to each well and the plates were further incubated for 4 h at 37° C. before the absorbance readings at 490 nm.
In a parallel experiment, SU-DHL-4 cells (100,000 cells/mL) were treated with various drugs and plated in 96-well plates. After incubation at 37° C. for 20 min, cells were washed twice using 200 uL/well of PBS and refilled with 100 uL/well of fresh medium and incubated for an additional 71.6 h. The MTS solution (20 uL/well) was added to each well and the plates were further incubated for 4 h at 37° C. before taking the absorbance readings at 490 nm.

[8] = system: MM.1S (human multiple myeloma B cells); assay: MTS cell proliferation cytotoxicity assay; assay type: cell-based; details: 72 h drug treatment
Description: as §1, §3

CC(=O)[O-].CC(=O)[O-].N.N.O.O.[Pt+2] [Aqua-cisPt, [cis-(NH3)2Pt(OH2)2](OAc)2]
IC50 ([1]; continuous 72 h incubation, Pt concentration, read-out: KB (FR^+), IC50 (μM), 72 h): 1.3 ± 0.2 µM
IC50 ([1]; read-out: KB (FR^+), IC50 (μM), 3 h, 3 h exposure, washed, drug-free medium up to 72 h, Pt concentration): 9.7 ± 2.5 µM
IC50 ([2]; continuous 72 h incubation, Pt concentration, read-out: MCF-7 (FR^−), IC50 (μM), 72 h): 12.2 ± 0.4 µM
IC50 ([2]; read-out: MCF-7 (FR^−), IC50 (μM), 3 h, 3 h exposure, washed, drug-free medium up to 72 h, Pt concentration): 88.9 ± 14.4 µM
IC50 ([3]; based on Pt concentration): 1 ± 0.01 µM
IC50 ([4]; based on Pt concentration): 17.9 µM
IC50 ([5]; based on Pt concentration): 5.5 µM
IC50 ([6]; based on Pt concentration): 2.6 ± 0.8 µM
Cellular uptake, MCF-7 (FR^−), Pt (MCF-7 (FR−) cells; 10 μM arsenic / 8 μM Pt): 0.24 ± 0.07 ×10^7 atoms/cell

Arsenic trioxide [As2O3]
IC50 ([1]; continuous 72 h incubation, As concentration, read-out: KB (FR^+), IC50 (μM), 72 h): 5.2 ± 1 µM
IC50 ([1]; read-out: KB (FR^+), IC50 (μM), 3 h, 3 h exposure, washed, drug-free medium up to 72 h, As concentration): > 200 µM
IC50 ([2]; continuous 72 h incubation, As concentration, read-out: MCF-7 (FR^−), IC50 (μM), 72 h): 6.9 ± 1.7 µM
IC50 ([2]; read-out: MCF-7 (FR^−), IC50 (μM), 3 h, 3 h exposure, washed, drug-free medium up to 72 h, As concentration): 63.7 ± 22.3 µM
IC50 [7]: 1.45 µM
IC50 ([3]; based on As concentration): 2.1 ± 0.03 µM
IC50 ([4]; based on As concentration): 10 µM
IC50 ([5]; based on As concentration): 3.7 µM
IC50 ([6]; based on As concentration): 2.7 ± 1.1 µM
IC50 ([8]; based on As concentration): 0.58 µM
Cellular uptake, MCF-7 (FR^−), As (MCF-7 (FR−) cells; 10 μM arsenic): 9.4 ± 2.3 ×10^7 atoms/cell

N.N.[Cl][Pt][Cl] [CisPt, cis-diamine dichloroplatinum(II)]
IC50 ([3]; based on Pt concentration): 0.6 ± 0.2 µM
IC50 ([4]; based on Pt concentration): 14 µM
IC50 ([5]; based on Pt concentration): 3.5 µM
IC50 ([6]; based on Pt concentration): 2 ± 0.01 µM
IC50 ([8]; based on Pt concentration): 1.43 µM
